According to patent US10821115B2, “Compounds that inhibit Mcl-1 protein” (priority 2017, dated 2020):
Like-named read-outs stand apart in the source and are kept apart here.

Key:
[1] = biological target: recombinant human Mcl-1 (residues 171-327) / Bim interaction (Homo sapiens (Human), UniProt Q07820); assay: biochemical; type: binding; details: read-out: Mcl-1 HTRF IC50
[2] = system: human multiple myeloma cell line, OPM-2; assay: Cell viability assay (OPM-2 10 FBS), CellTiter-Glo; type: cell-based
In short: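 IC50 values come from 4-parameter logistic fits of luminescence signals reflecting cell viability. Treatment lasted 16 h at 37 °C in complete medium with 10% FBS, starting from 3000 cells/well.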

[3] = 0.1 nM Mcl-1(171-327), 0.05 nM biotin-Bim (51-76)
[4] = Homo sapiens, OPM-2, 16 h, read-out: OPM-2 10% FBS IC50 IP, OPM-2 cells, 10% FBS, 16 h incubation
[5] = TR-FRET, Mcl-1(171-327) / biotin-Bim (51-76)
[6] = Homo sapiens, OPM-2, 16 h, read-out: OPM-2 10% FBS IC50 IP, OPM-2 cells, 10% FBS, 16 h, CellTiter-Glo
[7] = read-out: OPM-2 10% FBS IC50 IP, OPM-2 cells, 10% FBS, 16 h, CellTiter-Glo

Chain of recombinant human Mcl-1 (residues 171-327) / Bim interaction (Q07820 171-327): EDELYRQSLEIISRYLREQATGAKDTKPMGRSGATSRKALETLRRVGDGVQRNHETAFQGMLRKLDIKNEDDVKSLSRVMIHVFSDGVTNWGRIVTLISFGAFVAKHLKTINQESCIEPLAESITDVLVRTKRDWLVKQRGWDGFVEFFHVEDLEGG

Compound	IC50 [1, 3] [nM]	IC50 [2, 4] [nM]	IC50 [1, 5] [nM]	IC50 [2, 6] [nM]	IC50 [2, 7] [nM]
COCC(=O)N1CCN(C[C@]2(OC)/C=C/C[C@H](C)[C@@H](C)S(=O)(=O)NC(=O)c3ccc4c(c3)N(C[C@@H]3CC[C@H]32)C[C@@]2(CCCc3cc(Cl)ccc32)CO4)CC1 [Example 246, (1S,3′R,6′R,7′S,8′E,11′S,12′R)-6-chloro-7′-methoxy-7′-((4-(methoxyacetyl)-1-piperazinyl)methyl)-11′,12′-dimethyl-3,4-dihydro-2H,15′H-spiro[naphthalene-1,22′-[20]oxa[13]thia[1,14]diazatetracyclo [14.7.2.0~3,6~.0~19,24~]pentacosa[8,16,18,24]tetraen]-15′-one 13′,13′-dioxide]	0.099	138	–	–	–
CCO[C@@]1(CN2CCN(C(COC)COC)CC2)/C=C/C[C@H](C)[C@@H](C)S(=O)(=O)NC(=O)c2ccc3c(c2)N(C[C@@H]2CC[C@H]21)C[C@@]1(CCCc2cc(Cl)ccc21)CO3 [Example 111, (1S,3′R,6′R,7′S,8′E,11′S,12′R)-6-chloro-7′-ethoxy-7′-((4-(2-methoxy-1-(methoxymethyl)ethyl)-1-piperazinyl)methyl)-11′,12′-dimethyl-3,4-dihydro-2H,15′H-spiro[naphthalene-1,22′-[20]oxa[13]thia[1,14]diazatetracyclo [14.7.2.0~3,6~.0~19,24~]pentacosa[8,16,18,24]tetraen]-15′-one 13′,13′-dioxide]	0.362	301	–	–	–
CO[C@]1(c2ncccn2)CCC[C@H](C)[C@@H](C)S(=O)(=O)NC(=O)c2ccc3c(c2)N(C[C@@H]2CC[C@H]21)C[C@@]1(CCCc2cc(Cl)ccc21)CO3 [Example 100276, (1S,3′R,6′R,7′R,11′S,12′R)-6-chloro-7′-methoxy-11′,12′-dimethyl-7′-(2-pyrimidinyl)-3,4-dihydro-2H,15′H-spiro[naphthalene-1,22′-[20]oxa[13]thia[1,14]diazatetracyclo [14.7.2.0~3,6~.0~19,24~]pentacosa[16,18,24]trien]-15′-one 13′,13′-dioxide]	–	–	0.326	1530	–
C[C@@H]1[C@@H](C)C/C=C/[C@@](O)(CC(=O)N(C)CCN(C)C)[C@@H]2CC[C@H]2CN2C[C@@]3(CCCc4cc(Cl)ccc43)COc3ccc(cc32)C(=O)NS1(=O)=O [Example 100281, 2-((1S,3′R,6′R,7′S,8′E,11′S,12′R)-6-chloro-7′-hydroxy-11′,12′-dimethyl-13′,13′-dioxido-15′-oxo-3,4-dihydro-2H-spiro[naphthalene-1,22′-[20]oxa[13]thia[1,14]diazatetracyclo [14.7.2.0~3,6~.0~19,24~]pentacosa[8,16,18,24]tetraen]-7′-yl)-N-(2-(dimethylamino)ethyl)-N-methylacetamide]	–	–	0.117	–	352
CO[C@@]1(CN2CCc3cncnc3C2)/C=C/C[C@H](C)[C@@H](C)S(=O)(=O)NC(=O)c2ccc3c(c2)N(C[C@@H]2CC[C@H]21)C[C@@]1(CCCc2cc(Cl)ccc21)CO3 [Example 211]	0.147	156	–	–	–
CO[C@@]1(C(F)F)/C=C/C[C@H](C)[C@@H](C)S(=O)(=O)NC(=O)c2ccc3c(c2)N(C[C@@H]2CC[C@H]21)C[C@@]1(CCCc2cc(Cl)ccc21)CO3 [Example 100071, (1S,3′R,6′R,7′S,8′E,11′S,12′R)-6-chloro-7′-(difluoromethyl)-7′-methoxy-11′,12′-dimethyl-3,4-dihydro-2H,15′H-spiro[naphthalene-1,22′-[20]oxa[13]thia[1,14]diazatetracyclo [14.7.2.0~3,6~.0~19,24~]pentacosa[8,16,18,24]tetraen]-15′-one 13′,13′-dioxide]	–	–	1.54	588	–
C[C@@H]1[C@@H](C)C/C=C/[C@@](O)(C#CCO)[C@@H]2CC[C@H]2CN2C[C@@]3(CCCc4cc(Cl)ccc43)COc3ccc(cc32)C(=O)NS1(=O)=O [Example 100395, (1S,3′R,6′R,7′S,8′E,11′S,12′R)-6-chloro-7′-hydroxy-7′-(3-hydroxy-1-propyn-1-yl)-11′,12′-dimethyl-3,4-dihydro-2H,15′H-spiro[naphthalene-1,22′-[20]oxa[13]thia[1,14]diazatetracyclo [14.7.2.0~3,6~.0~19,24~]pentacosa[8,16,18,24]tetraen]-15′-one 13′,13′-dioxide]	–	–	0.056	–	40
CO[C@@]1(CC(=O)N(C)C)CCC[C@H](C)[C@@H](C)S(=O)(=O)NC(=O)c2ccc3c(c2)N(C[C@@H]2CC[C@H]21)C[C@@]1(CCCc2cc(Cl)ccc21)CO3 [Example 100176, 2-((1S,3′R,6′R,7′R,11′S,12′R)-6-chloro-7′-methoxy-11′,12′-dimethyl-13′,13′-dioxido-15′-oxo-3,4-dihydro-2H-spiro[naphthalene-1,22′-[20]oxa[13]thia[1,14]diazatetracyclo [14.7.2.0~3,6~.0~19,24~]pentacosa[16,18,24]trien]-7′-yl)-N,N-dimethylacetamide]	–	–	0.48	603	–
COCC[C@@H]1[C@@H](C)C/C=C/[C@](CN2CCN(C(COC)COC)CC2)(OC)[C@@H]2CC[C@H]2CN2C[C@@]3(CCCc4cc(Cl)ccc43)COc3ccc(nc32)C(=O)NS1(=O)=O [Example 25, (1S,3′R,6′R,7′S,8′E,11′S,12′R)-6-chloro-7′-methoxy-12′-(2-methoxyethyl)-7′-((4-(2-methoxy-1-(methoxymethyl)ethyl)-1-piperazinyl)methyl)-11′-methyl-3,4-dihydro-2H,15′H-spiro[naphthalene-1,22′-[20]oxa[13]thia[1,14,25]triazatetracyclo [14.7.2.0~3,6~.0~19,24~]pentacosa[8,16,18,24]tetraen]-15′-one 13′,13′-dioxide]	0.113	41	–	–	–
COC(OC)c1cncc([C@]2(O)/C=C/C[C@H](C)[C@@H](C)S(=O)(=O)NC(=O)c3ccc4c(c3)N(C[C@@H]3CC[C@H]32)C[C@@]2(CCCc3cc(Cl)ccc32)CO4)c1 (single isomer, unassigned) [Example 100510]	–	–	0.07	379	–
CO[C@@]1(CN2CCC3(CCOCC3)CC2)/C=C/C[C@H](C)[C@@H](C)S(=O)(=O)NC(=O)c2ccc3c(c2)N(C[C@@H]2CC[C@H]21)C[C@@]1(CCCc2cc(Cl)ccc21)CO3 [Example 264, (1S,3′R,6′R,7′S,8′E,11′S,12′R)-6-chloro-7′-methoxy-11′,12′-dimethyl-7′-(3-oxa-9-azaspiro[5.5]undec-9-ylmethyl)-3,4-dihydro-2H,15′H-spiro[naphthalene-1,22′-[20]oxa[13]thia[1,14]diazatetracyclo [14.7.2.0~3,6~.0~19,24~]pentacosa[8,16,18,24]tetraen]-15′-one 13′,13′-dioxide]	0.396	771	–	–	–
COCCOC[C@@]1(O)/C=C/C[C@H](C)[C@@H](C)S(=O)(=O)NC(=O)c2ccc3c(c2)N(C[C@@H]2CC[C@H]21)C[C@@]1(CCCc2cc(Cl)ccc21)CO3 [Example 100445, (1S,3′R,6′R,7′R,8′E,11′S,12′R)-6-chloro-7′-hydroxy-7′-((2-methoxyethoxy)methyl)-11′,12′-dimethyl-3,4-dihydro-2H,15′H-spiro[naphthalene-1,22′-[20]oxa[13]thia[1,14]diazatetracyclo [14.7.2.0~3,6~.0~19,24~]pentacosa[8,16,18,24]tetraen]-15′-one 13′,13′-dioxide]	–	–	0.04	98	–
